# Test results taken from patent US10226041B2, “Compositions and methods for improving the quality of processed sperm” (Inguran, LLC, priority 2011, dated 2019).
# Tested on: sex-sorted sperm
# Test: DNA fragmentation of sex-sorted sperm (Halomax for animals kit)
# Format: cell-based, cattle
# Experimental: The levels of DNA fragmentation were also screened using a DNA fragmentation ‘Halomax for animals’ kit (Halotech DNA, sl, Madrid, Spain) to determine if there were any advantageous effects of using the antioxidants during the staining and processing of sex-sorted sperm. Two different breeds of cattle, Jersey and Holstein, were examined using two different concentrations of antioxidant, 0.25 mg/ml and 0.5 mg/ml of vitamin B12 with the 3 step protocol adding the same concentration of OSR during cell staining, in the collection catch fluid and prior to cryopreservation. One of the bulls was used to evaluate the effect of addition or omission of OSR at one or more of the sperm sorting steps. Motility and the level of DNA fragmentation were both recorded.
substance,measurement,setting,value
vitamin B12,% DNA Fragmentation,"0 hr, 1 step-stain (+−−), Bull C (Jersey), Trial 1",0.7%
same,% DNA Fragmentation,"0 hr, 1 step-stain (+−−), Bull C (Jersey), Trial 2",0.7%
same,% DNA Fragmentation,"0 hr, 2 step-stain (++−), Bull C (Jersey), Trial 1",0.3%
same,% DNA Fragmentation,"0 hr, 2 step-stain (++−), Bull C (Jersey), Trial 2",0.3%
same,% DNA Fragmentation,"0 hr, 3 step (+++), Bull C (Jersey), Trial 1",0%
same,% DNA Fragmentation,"0 hr, 3 step (+++), Bull C (Jersey), Trial 2",0.3%
same,% DNA Fragmentation,"0 hr, vitamin B12 0.5 mg/ml, 3 step, Bull A (Jersey)",0.3%
same,% DNA Fragmentation,"0 hr, vitamin B12 0.5 mg/ml, 3 step, Bull B (Holstein)",0.3%
same,% DNA Fragmentation,"24 hr, 1 step-stain (+−−), Bull C (Jersey), Trial 1",1%
same,% DNA Fragmentation,"24 hr, 1 step-stain (+−−), Bull C (Jersey), Trial 2",1%
same,% DNA Fragmentation,"24 hr, 2 step-stain (++−), Bull C (Jersey), Trial 1",1%
same,% DNA Fragmentation,"24 hr, 2 step-stain (++−), Bull C (Jersey), Trial 2",0.7%
same,% DNA Fragmentation,"24 hr, 3 step (+++), Bull C (Jersey), Trial 1",0.3%
same,% DNA Fragmentation,"24 hr, 3 step (+++), Bull C (Jersey), Trial 2",0.3%
same,% DNA Fragmentation,"24 hr, vitamin B12 0.5 mg/ml, 3 step, Bull A (Jersey)",0.7%
same,% DNA Fragmentation,"24 hr, vitamin B12 0.5 mg/ml, 3 step, Bull B (Holstein)",0.3%
same,% DNA Fragmentation,"48 hr, 1 step-stain (+−−), Bull C (Jersey), Trial 1",1.3%
same,% DNA Fragmentation,"48 hr, 1 step-stain (+−−), Bull C (Jersey), Trial 2",1%
same,% DNA Fragmentation,"48 hr, 2 step-stain (++−), Bull C (Jersey), Trial 1",1%
same,% DNA Fragmentation,"48 hr, 2 step-stain (++−), Bull C (Jersey), Trial 2",0.7%
same,% DNA Fragmentation,"48 hr, 3 step (+++), Bull C (Jersey), Trial 1",0.3%
same,% DNA Fragmentation,"48 hr, 3 step (+++), Bull C (Jersey), Trial 2",0.7%
same,% DNA Fragmentation,"48 hr, vitamin B12 0.5 mg/ml, 3 step, Bull A (Jersey)",1.3%
same,% DNA Fragmentation,"48 hr, vitamin B12 0.5 mg/ml, 3 step, Bull B (Holstein)",0.7%
